Legend:
HeLa cells = test: Cell surface expression of sialic acids, DMB labeling with fluorescence HPLC; assay type: cell-based
Description: (§1) Cell Surface Expression of Fluorinated Sialic Acids. […] These experiments assay the overall action of multiple biosynthetic steps downstream of sialic acid, namely activation, processing and attachment to proteins and lipids and finally successful trafficking to the membrane. As mentioned above, six derivatives of mannosamine have been prepared and tested. In order to bypass the most stringent step in sialic acid biosynthetic pathway (ManNAc 6-kinase), fluorinated sialic acids were also prepared for direct use in feeding experiments. Sialic acids were synthesized as described above by enzymatic conversion of mannosamines to the corresponding sialic acids. Fluorine containing sialic acids were fed to Jurkat, HeLa and HL-60 cells in the peracetylated, methyl ester form since Reutter and Bertozzi have independently shown that exogenous addition of sialic acids in this form results in efficient incorporation of a wide range of derivatives. The degree of fluorination on the N-acyl chain was varied from a single terminal trifluoromethyl group to a —C11F17 group.
(§2) To visualize and quantify the sialic acid incorporation on cell surfaces, 1,2-diamino-4,5-methylenedioxybenzene (DMB) was used as a fluorogenic reagent for labeling α-keto acids (FIG. 4). [Hara, S.; Yamaguchi, M.; Takemori, Y.; Furuhata, K.; Ogura, H.; Nakamura, M. “Determination of Mono-O-Acetylated N-Acetylneuraminic Acids in Human and Rat Sera by Fluorometric High-Performance Liquid-Chromatography” Anal. Biochem. 1989, 179, 162-6.] Briefly, the membrane fraction was obtained after incubation with a given compound (200 μM typical, 900 μM maximum) for 3 days. […] The samples were analyzed by HPLC using a fluorescence detector. The retention times (by comparison to an authentic sample) provide information about the identity, LC ESI-MS unambiguously confirms the molecular structure, and integration of the peaks gives quantitative information on the relative amounts of membrane-derived sialic acids.

[1] = test system: K88 (a sub clone of BJA-B); test: Incorporation of unnatural sialic acids in highly sialylated cells; assay type: cell-based, human
Procedure: (§3) To visualize and quantify the sialic acid incorporation on cell surfaces, 1,2-diamino-4,5-methylenedioxybenzene (DMB) was used as a fluorogenic reagent for labeling α-keto acids (FIG. 4). [Hara, S.; Yamaguchi, M.; Takemori, Y.; Furuhata, K.; Ogura, H.; Nakamura, M. “Determination of Mono-O-Acetylated N-Acetylneuraminic Acids in Human and Rat Sera by Fluorometric High-Performance Liquid-Chromatography” Anal. Biochem. 1989, 179, 162-6.] Briefly, the membrane fraction was obtained after incubation with a given compound (200 μM typical, 900 μM maximum) for 3 days. The membrane pellet was then hydrolyzed by use of 2 M AcOH at 80° C. and then allowed them to react with DMB to yield the corresponding quinoxalinone derivatives. The samples were analyzed by HPLC using a fluorescence detector. The retention times (by comparison to an authentic sample) provide information about the identity, LC ESI-MS unambiguously confirms the molecular structure, and integration of the peaks gives quantitative information on the relative amounts of membrane-derived sialic acids.
(§4) Roughly 75% of the total sialic acid (using substrate 5g) on the cell surface was fluorinated using these cell lines.

[2] = test system: HL60 cells adhering to fibronectin; test: Static adhesion of labeled cells to fibronectin-coated plates; assay type: cell-based; conditions: HL60 cells incubated 72 h with 200 μM compound; PMA or thapsigargin stimulation; 1 hour adhesion
Procedure: FIG. 9 depicts (a) adhesion of HL60 cells to plates coated with fibronectin in the presence of thapsigargin (Tg). The cells were incubated with compounds for 72 hours, washed with PBS and then allowed to adhere to plates. After 1 hr, unattached cells were removed by rinsing with PBS and then the number of cells quantified by addition of calcein-AM and fluorescence counting. (b) Similar assay as in (a) but with compounds 4a and 4d (data in (b) is taken from Horstkorte, R.; Rau, K.; Laabs, S.; Danker, K.; Reutter, W. “Biochemical engineering of the N-acyl side chain of sialic acid leads to increased calcium influx from intracellular compartments and promotes differentiation of HL60 cells” FEBS Lett. 2004, 571, 99-102).
Adhesion of Labeled Cells on Collagen and Fibronectin. The ability of cells labeled with fluorinated carbohydrates to adhere to fibronectin and collagen was also investigated. […] To quantify adhesion, 96-well plates were coated with fibronectin or collagen (10 μg/mL in PBS) for 16 hours at 4° C. followed by treatment with 1% BSA for 4 hours to block nonspecific adhesion sites. […] Unattached cells were washed away by rinsing with PBS and the cells were quantified by addition of the fluorogenic esterase substrate calcein-AM and followed by measurement of emission at 520 nm in a microtiter fluorescence plate reader. […]

[3] = test system: HL60-I cells (deficient in UDP-GlcNAc 2-epimerase); test: Replacement of Neu5Ac with unnatural sialic acids in hyposialylated cells; assay type: cell-based
Procedure: as §3
Replacement of Neu5Ac with Unnatural Sialic Acids in Hyposialylated Cells. Cell lines HL60-I and BJA-B K20, variants respectively of the parent HL60 and human B-cell lymphoma (BJA-B), are deficient in UDP-GlcNAc 2-epimerase and show a global suppression of sialylation of glycoconjugates, including expressing mostly unsialylated Lewis-X. [Keppler, 0. T.; Hinderlich, S.; Langner, J.; Schwartz-Albiez, R.; Reutter, W.; Pawlita, M. “UDP-GlcNAc 2-epimerase: A regulator of cell surface sialylation” Science 1999, 284, 1372-6.] Using these hyposialylated cell lines incorporation of fluorinated precursors was investigated and the overall percentage of sialic acids on cell surfaces that are fluorinated was assessed. Both HL60-I and BJA-B K20 cell lines served as metabolic hosts for fluorinated sialic acids 5-N-trifluoropropyl-Neu (5e) and 5-N-trifluorobutyl-Neu (5g) (FIG. 8). […] In contrast, untreated cells only contained Neu5Ac. […]

HL60-II cells = test: Incorporation of unnatural sialic acids in highly sialylated cells; assay type: cell-based
Procedure: as §3, §4

[4] = test system: cell surfaces (Jurkat, HeLa and HL-60 cells); test: Cell surface expression of sialic acids, DMB labeling with fluorescence HPLC (cell line not stated); assay type: cell-based; conditions: 200 μM typical, 900 μM maximum, 3 days
Description: Cell Surface Expression of Fluorinated Sialic Acids. […] These experiments assay the overall action of multiple biosynthetic steps downstream of sialic acid, namely activation, processing and attachment to proteins and lipids and finally successful trafficking to the membrane. As mentioned above, six derivatives of mannosamine have been prepared and tested. In order to bypass the most stringent step in sialic acid biosynthetic pathway (ManNAc 6-kinase), fluorinated sialic acids were also prepared for direct use in feeding experiments. Sialic acids were synthesized as described above by enzymatic conversion of mannosamines to the corresponding sialic acids. […]
To visualize and quantify the sialic acid incorporation on cell surfaces, 1,2-diamino-4,5-methylenedioxybenzene (DMB) was used as a fluorogenic reagent for labeling α-keto acids (FIG. 4). […] The samples were analyzed by HPLC using a fluorescence detector. The retention times (by comparison to an authentic sample) provide information about the identity, LC ESI-MS unambiguously confirms the molecular structure, and integration of the peaks gives quantitative information on the relative amounts of membrane-derived sialic acids. […]

[5] = test system: BJA-B K20 cells (deficient in UDP-GlcNAc 2-epimerase); test: Replacement of Neu5Ac with unnatural sialic acids in hyposialylated cells; assay type: cell-based, human
Procedure: as §3
Replacement of Neu5Ac with Unnatural Sialic Acids in Hyposialylated Cells. […] Using these hyposialylated cell lines incorporation of fluorinated precursors was investigated and the overall percentage of sialic acids on cell surfaces that are fluorinated was assessed. […]

[6] = test system: HL60 cells adhering to fibronectin; conditions: HL60 cells cultivated in the presence of the compound; literature data (Villavicencio-Lorini 2002; Horstkorte 2004); cited from earlier work
Jurkat cells = test: Cell surface expression of sialic acids, DMB labeling with fluorescence HPLC; assay type: cell-based; conditions: DMB conjugates of membrane fraction
Description: as §1, §2

| Compound | total sialic acid on the cell surface replaced (HeLa cells) | cell surface incorporation / expression (HeLa cells; DMB conjugates of membrane fraction) | incorporation of the fluorinated sialic acid [1] | total sialic acid on the cell surface that was fluorinated [1] | decrease of adhesion to fibronectin compared to untreated cells [2] | incorporation on the cell surface by LC ESI-MS [3] | cell surface sialylation coming from exogenously added compound ([3]; DMB labeling and fluorescence HPLC) | incorporation of the fluorinated sialic acid (HL60-II cells) | total sialic acid on the cell surface that was fluorinated (HL60-II cells) | incorporation on cell surfaces as sialoglycoconjugates [4] | incorporation on the cell surface by LC ESI-MS [5] | increase of adhesion to fibronectin [6] | cell surface incorporation / expression (Jurkat cells) | adhesion to fibronectin compared to untreated cells [2] |
| --- | --- | --- | --- | --- | --- | --- | --- | --- | --- | --- | --- | --- | --- | --- |
| 5-N-trifluorobutyl-Neu [Compound 5g] | 75% | Cell surface expression of 5g | readily incorporated | Roughly 75% | ~70% | unambiguously confirmed | ~75% | readily incorporated | Roughly 75% | escorted and appended to cellular surfaces | unambiguously confirmed |  |  |  |
| CCC(=O)N[C@@H]1C(O)O[C@H](CO)[C@@H](O)[C@@H]1O (stereo partly shown) [Compound 4d, N-propanoyl-mannosamine] |  |  |  |  |  |  |  |  |  |  |  | more than 130% |  |  |
| O=C(CC(F)(F)F)N[C@H]1[C@H]([C@H](O)[C@H](O)CO)OC(O)(C(=O)O)C[C@@H]1O (stereo partly shown) [Compound 5e, 5-N-trifluoropropyl-Neu] |  |  | readily incorporated |  |  | unambiguously confirmed |  | readily incorporated |  | escorted and appended to cellular surfaces | unambiguously confirmed |  | efficiently incorporated | decreased |

Source: patent US20090214439A1, “Fluorinated Carbohydrates and Their Use in Tumor Visualization, Tissue Engineering, and Cancer Chemotherapy” (Trustees of Tufts College, priority 2006, published 2009)
